Results: patent publication US8394355B2, “Use of UTP for the diagnosis of stenoses and other conditions of restricted blood flow” (P2 science Aps, priority 2009, dated 2013)

What was measured:
leg blood flow = details: cited from earlier work; for relative vasoactive potency (rank order): only for blood flows around 3.5 Lmin^−1
[1] = system: pulmonary and systemic circulation of healthy female pigs; assay: Systemic (central intravenous) nucleotide infusion in pigs, hemodynamic response; format: in vivo; details: for increase in CO (cardiac output): FIG. 7b; for increase in HR from baseline: FIG. 7c; for decrease in SV (stroke volume): FIG. 7d; for MAP lowered by, from baseline: p<0.05, FIG. 7a; for infusion rate at target MAP: target ~50% reduction in baseline MAP, right atrium infusion
Experimental: In the present study, the hemodynamic response in the pulmonary and systemic circulation was tested, as well as the effect of central intravenous infusions of ATP, ADP, ADO, and UTP on the heart.
Infusion rates were aimed at exerting a pronounced systemic response in the lowering of arterial blood pressure, but avoiding a total circulatory collapse.
Methods: 10 healthy female pigs (Department of Experimental Medicine and Surgery, University of Copenhagen, Denmark) bred as a combination of the Danish Landrace (⅓) and Yorkshire (⅔), with a medium weight of 41±2 kg were investigated.
Mean arterial blood pressure (MAP) was obtained from the catheter in arcus aorta with the transducer (Pressure Monitoring Kit, Baxter, Deerfield, Ill., USA) positioned at the level of the heart. The left femoral artery was subsequently exposed and an ultrasound doppler probe attached for peripheral femoral artery flow measurements (CM-4000, Cardiomed, Norway). MAP, HR and peripheral flow were monitored and data continuously collected using a PowerLab system (Adinstruments, Australia). Cardiac Output (CO) was determined in triplicates by thermodilution, following an injection of 10 ml of cooled saline solution. Blood samples were withdrawn from catheters in aorta and the right atrium at baseline and at steady state when MAP had decreased maximally or by ˜50%. Calculated variables were: stroke volume of the heart (SV=CO/HR), pulmonary vascular resistance (PVR=(MPAP−PCWP)/CO), systemic vascular resistance (SVR=(MAP−MRAP)/CO), leg vascular conductance (LVC=LBF/(MAP−MRAP)), and arterial (aorta) and mixed venous (pulmonary artery) oxygen content (Hb*1.34*O2 saturation). In the calculation of LVC, MRAP was used as an estimate of mean femoral venous pressure (MFVP), as MRAP was found in a series of measurements to equal MFVP, as estimated in 10 supine pigs. As a potential estimate for myocardial oxygen demand the rate pressure product (RPP=MAP*HR) was also calculated.
Drug infusions: Each animal was administered the nucleotides ATP, UTP, ADP (Sigma, St. Louis, Mo., USA) and ADO (Item Development AB, Stocksund, Sweden), through the internal jugular vein in the right atrium, in random order following blinded allocation. The nucleotides and ADO were prepared by dissolving in saline so as to achieve the target concentration of ATP (40±0.5 μmol/min), ADP (43±8 μmol/min), UTP (up to 1,600 μmol/min), and ADO (73±7 μmol/min). The nucleotides were infused in increasing dosages at 2 min intervals aiming at reducing MAP by maximally ˜50%. Thereafter, that specific infusion rate was maintained for ˜3-5 min. After each intervention the animal rested for ˜30 min, allowing resting cardiovascular variables to be reestablished. Thereafter, a new cycle of nucleotide infusion was administered. In the present study we aimed to allow the drugs to reduce MAP by ˜50%, but without inducing a hemodynamic and circulatory collapse, to simulate a pronounced state of systemic vasodilation, as may be observed for instance in a shock condition.

[2] = system: infarct area during acute myocardial infarction; assay: ADP or UTP infusion during myocardial infarction in pigs (unpublished); format: in vivo; details: infused during acute myocardial infarction, unpublished results
Description: This is clearly in contrast to previous findings, but is more clinically relevant as most cardiac patients are older. […] This conclusion is also supported by another study by the present inventor in pigs where ADP or UTP was infused during myocardial infarction. […] Therefore, the previous assumptions in patent application WO 2007/065437 relating to the regulation of purinergic receptor activity to modulate vascular tone, particularly for treating hemodynamic conditions by overriding vasoconstriction activity, which could potentially have clinical applications for treatment with UTP agonists or antagonists, is incorrect.

Compound: Nc1ncnc2c1ncn2[C@@H]1O[C@H](COP(=O)(O)O)[C@@H](O)[C@H]1O [AMP]
- relative vasoactive potency (rank order) (leg blood flow): 1.7

Compound: Nc1ncnc2c1ncn2[C@@H]1O[C@H](COP(=O)(O)OP(=O)(O)OP(=O)(O)O)[C@@H](O)[C@H]1O [ATP]
- increase in CO (cardiac output) [1]: 35.1±6.9%
- increase in HR from baseline [1]: 23.0±5.7%
- decrease in SV (stroke volume) [1]: did not significantly change SV
- decrease in LBF (leg blood flow) from baseline ([1]; p<0.05): 22.7±4.2%
- decrease in SVR (systemic vascular resistance) from baseline ([1]; p<0.05): 61.6±2.1%
- increase in LVC (leg vascular conductance) from baseline ([1]; p<0.05): 44.7±8.7%
- MAP lowered by, from baseline [1]: 47.4±1.7%
- decrease in PVR (pulmonary vascular resistance) from baseline ([1]; pig, in vivo): 37.8±4.9%
- infusion rate at target MAP [1]: 40.2 ± 0.5 µmol/min
- blood flow increase, % of maximum in the leg during hard exercise (leg blood flow; local infusion): 85%
- relative vasoactive potency (rank order) (leg blood flow): 100

Compound: Nc1ncnc2c1ncn2[C@@H]1O[C@H](COP(=O)(O)OP(=O)(O)O)[C@@H](O)[C@H]1O [ADP]
- increase in CO (cardiac output) [1]: not alter CO
- increase in HR from baseline [1]: 26.6±4.6%
- decrease in SV (stroke volume) [1]: 21.1±5.6%
- PVR reached during titration ([1]; dose dependent increase): 7.3±1.2 Wood Unit
- decrease in LBF (leg blood flow) from baseline ([1]; p<0.05): 34.9±10.2%
- decrease in SVR (systemic vascular resistance) from baseline ([1]; p<0.05): 49.5±2.0%
- increase in PVR ([1]; p<0.05): 156.7±38.3%
- MAP lowered by, from baseline [1]: 48.4±1.2%
- infusion rate at target MAP [1]: 43.2 ± 7.7 µmol/min
- relative vasoactive potency (rank order) (leg blood flow): 2.7
- effect on infarct area [2]: diminished it
